The results in this text go back to patent US20030125264A1, “Methods For Treating Wounds” (Kimberly-Clark Worldwide, Inc., priority 2001, published 2003).

The subject of this assay is human foreskin fibroblasts (ATCC cell line CRL-2522). Put plainly: proliferative response of human skin fibroblasts to flavonoids (96-well, Cell Titer 96 Aqueous One, absorbance 490 nm). The format is cell-based. The following applies: for difference in cell proliferation between controls and test compound (one-way ANOVA): P<0.01 and 0.05, vehicle control 0.1% DMSO in DMEM, n=6; for cell proliferating effect on human skin fibroblasts: at lower concentrations (samples tested at 10^-4, 10^-5 and 10^-6 M; 28 hours, serum-free DMEM, 0.1% DMSO, n=6). As for the experimental part: The proliferative response of flavonoids to the human skin fibroblast cell line (ATCC, Manassas, Va., cell line CRL-2522 human foreskin fibroblast) was determined in a 96-well assay system using serum-free medium as a control. Stock solutions of flavonoids were prepared as 1.0 mole/L solutions in Dimethyl sulfoxide (DMSO, Sigma Chemical Company, St. Louis, Mo.) then diluted with Dulbecco's Modified Eagle's Medium (DMEM, Sigma Chemical Co., St. Louis, Mo.) to 10^−4, 10^−5, and 10^−6 M solutions with a final DMSO concentration of 0.1% (v:v). Cells were seeded into 96 well plates at a concentration of 2×10^3 cells in 100 μl of DMEM containing 10% fetal bovine serum (FBS, Sigma Chemical Co., St. Louis, Mo.). Plates were incubated for 24 hours at 37° C. in a humidified, 5% CO2 atmosphere. After incubation, the medium was aspirated and the wells were rinsed twice with 100 μl of serum-free DMEM. The final rinse was aspirated and 100 μl of the 10^−4-10^−6 M of each solution was added to 6 wells. In addition, 100 μl of vehicle (serum free DMEM with DMSO at 0.1% v:v) was added to 6 wells as control. In addition, duplicate wells of each test and control solution were placed in wells without the human fibroblast cells to serve as blanks for each treatment. All wells were incubated for 28 hours at 37° C. in a humidified, 5% CO2 atmosphere. After incubation, 20 μl of Cell Titer 96 Aqueous One Solution Reagent (Promega, Corp., Madison, Wis.) was added to all wells. The plates were swirled gently and place back in the incubator for 45 minutes and spectrophotometric absorbance was read at 490 nm. Absorbance of the wells without cells was subtracted from the absorbance of the wells with cells to give the true absorbance. Various compounds of present invention were tested for their cell proliferating effect on human skin fibroblasts. The effect of flavonoids naringin and quercetin on cell proliferation in human foreskin fibroblasts (ATCC cell line CRL-2522) was measured and data is presented in FIG. 1. The control and all test materials contained a final concentration of 0.1% DMSO in DMEM with n=6. Sample concentrations were 10^−4, 10^−5 and 10^−6 M. Statistical analysis was done by using one-way ANOVA.

Consider `C[C@@H]1O[C@@H](O[C@H]2[C@H](Oc3cc(O)c4c(c3)O[C@H](c3ccc(O)cc3)CC4=O)O[C@H](CO)[C@@H](O)[C@@H]2O)[C@H](O)[C@H](O)[C@H]1O` [naringin], for which the “difference in cell proliferation between controls and test compound (one-way ANOVA)” value is recorded as “Statistically significant difference”; the “cell proliferating effect on human skin fibroblasts” value is “good cell proliferating agents”.
As for `O=c1c(O)c(-c2ccc(O)c(O)c2)oc2cc(O)cc(O)c12` [quercetin], the “difference in cell proliferation between controls and test compound (one-way ANOVA)” value was “Statistically significant difference”; the “cell proliferating effect on human skin fibroblasts” value is listed as “good cell proliferating agents”. Further, the “cell growth relative to the control” value (at higher concentrations (samples tested at 10^-4, 10^-5 and 10^-6 M; 28 hours, serum-free DMEM, 0.1% DMSO, n=6)) is listed as “appears to show cell inhibition”.
